Data reported in patent publication US12611387B2, “Compound and composition for inducing neuroprotection” (REST THERAPEUTICS, priority 2020, dated 2026).

Key:
non-intoxicated mice = experiment: Y-maze, amnestic effect in non-intoxicated mice; assay type: in vivo; conditions: 10 mg/Kg i.p.
Protocol: The spontaneous alternation test was used to assess spatial working memory (very short-term memory) in rodents. The maze was made of grey opaque polyvinylchloride (PVC). Each arm was 40 cm long, 13 cm high, 3 cm wide at the bottom, and 10 cm wide at the top. The arms converged towards one another at an equal angle between the different arms. In brief, each mouse was placed at the end of one arm and allowed to move freely during an 8 min session. The mouse's entries into each arm, including the arm at whose end it was placed, are recorded. An alternation is defined as the animal's successive entry into three different arms. The number of maximum alternations is thus the total number of entries into each arm minus 2 and the percentage of alternation was calculated according to the formula: % Alt=number of actual alternations/maximum number of alterations×100
The parameters measured included the percentage of alternations (memory index) and the total number of entries into the arms of the maze (exploration index, Maurice et al., 1994, 1996; Meunier et al., 2006, 2013; Villard et al., 2009, 2011). Data from the animals showing extreme behaviour (percentage of alternation <25% or >90%, or a number of entries less than 10) were excluded from the calculations. The attrition rate was routinely 5%. Under normal conditions, a mouse will spontaneously alternate exploring each of the arms. A mouse with impaired memory and/or orientation abilities will have a lower percentage of alternations.
In this experiment, memantine and FENM were administered at a dose of 10 mg/Kg i.p. and the performance of the mice was tested using the passive avoidance test and the Y-maze with non-intoxicated mice.

[1] = tested on: Aβ25-35 oligomer-intoxicated mice; experiment: Passive avoidance test, symptomatic treatment; assay type: in vivo; conditions: symptomatic design; for improvement in cognitive impairment in the passive avoidance test, effective doses: doses 0.1, 0.3, 1.0, 3 and 10 mg/Kg i.p.; for aggravating effect on amnestic symptoms in the passive avoidance test: intoxicated mice, memantine at 10 mg/Kg
Protocol: The test compounds were tested for their ability to decrease the cognitive symptoms of Aβ25-35 oligomer-induced neurodegeneration, i.e. their ability to provide symptomatic anti-amnestic treatment (FIGS. 1A and 1B). In brief, to test the symptomatic effect of the test compounds, they were administered 8 days after the icy injection of the Aβ25-35 oligomers, 30 minutes before the YMT and PAT memory tests were conducted or 30 minutes before the test, but after the training session, in the case of the MWT or ORT (FIG. 1A). The Hamlet Test® (FIG. 1B) involves a 2-week training session (4 hr/day) followed by a test (max. 10 min) under water deprivation conditions and under normal conditions; the Aβ25-35 peptide is injected after this first test. After one week, the compounds are administered and a second test under water deprivation conditions and under normal conditions is performed 30 min after injection. This test measures spatial-temporal disorientation, a major warning sign in Alzheimer's disease (Crouzier et al., 2018).
This test measures non-spatial (contextual) long-term memory. The apparatus used for this test was a box with two compartments (15×20×15 cm high), one illuminated with white PVC walls and the other in the dark with black PVC walls and a grid floor. A guillotine door separated the compartments. A 60 W lamp was positioned 40 cm above the box and illuminated the white compartment. Electric shocks (0.3 mA for 3 s) could be delivered to the grid floor using a generator (Lafayette Instruments, Lafayette, USA). The test comprised a training session and a test session. The guillotine door was closed during the training session. Each mouse was placed in the white compartment. After 5 seconds, the door was raised. When the mouse entered the darkened compartment and placed all four feet in contact with the grid floor, the door was closed and the electric shocks were delivered for 3 seconds. The time taken by the mouse to re-enter the darkened compartment (STL-Tg) and the number of vocalizations were recorded. The test session was conducted 24 hours after the training session. Each mouse was placed back into the illuminated white compartment. After 5 s the door was raised, the step-through latency (STL-R), i.e. the time it took the mouse to enter the darkened compartment, was measured. The maximum duration was 300 s. Mice with a STL-Tg>30 s or a STL-Tg and a STL-R<10 s were not considered for the test. The attrition rate was routinely 5% (Meunier et al., 2006, 2013; Villard et al., 2009, 2011). A mouse with impaired memory abilities will have a lower STL-R than a mouse with normal abilities. […]

Structure (SMILES)	Alternation (%) (non-intoxicated mice)	Number of entries (non-intoxicated mice)	improvement in cognitive impairment in the passive avoidance test, effective doses [1]	aggravating effect on amnestic symptoms in the passive avoidance test [1]
CC12CC3CC(C)(C1)CC(N)(C3)C2 [memantine, 3,5-Dimethyl-1-adamantanamine, reference compound]	48.8 ± 3.0 %	28.2 ± 2.9	significant improvement in cognitive impairment by memantine was observed at the 0.3 mg/Kg memantine dose only	worsens the cognitive symptoms of intoxicated mice when injected at 10 mg/Kg
NC12CC3CC(C1)CC(CCF)(C3)C2 [FENM, 3-(2-fluoroethyl)adamantan-1-amine]	63.7 ± 4.2%	32.7 ± 3.4	effective at 0.1; 0.3 and 1 mg/Kg	does not exert an aggravating effect on amnestic symptoms
